Tests used:
[1] = 293.15 K; 101.33 kPa; Liquid; Sing-around technique in a fixed-path interferometer
[2] = xn = mol fraction of the nth substance listed; details: 293.15 K, 101 kPa, Liquid; for speed of sound: Sing-around technique in a fixed-path interferometer

CC(C)CO [2-methyl-1-propanol]
Details | speed of sound [m/s]
[1] | 1204.1

CCCCO [butan-1-ol]
Details | speed of sound [m/s]
[1] | 1256.3

C1CCCCC1 [cyclohexane]
Details | speed of sound [m/s]
[1] | 1279

C1CCCCC1 [cyclohexane] + CCCCO
[2]
Details | mass density [kg/m3] | speed of sound [m/s]
x2 = 0.00115 | 778.6 | 1278.7
x2 = 0.00245 | 778.5 | 1277.7
x2 = 0.0124 | 778.5 | 1274.6
x2 = 0.0262 | 778.7 | 1271.5
x2 = 0.04084 | 778.8 | 1269.3
x2 = 0.07249 | 779.3 | 1265.3
x2 = 0.1395 | 780.4 | 1258.6
x2 = 0.1897 | 781.4 | 1254.6
x2 = 0.3017 | 784 | 1248.8
x2 = 0.5175 | 790.4 | 1244.4
x2 = 0.6162 | 793.7 | 1244.8
x2 = 0.7983 | 800.8 | 1248.2

CCCCCC [hexane]
Details | speed of sound [m/s]
[1] | 1098.9

CCCCCC [hexane] + CCCCO
[2]
Details | mass density [kg/m3] | speed of sound [m/s]
x2 = 0.00305 | 659.9 | 1099
x2 = 0.04764 | 664.4 | 1099.2
x2 = 0.1026 | 670.3 | 1099.8
x2 = 0.1225 | 672.4 | 1100.5
x2 = 0.1509 | 675.6 | 1101.6
x2 = 0.2261 | 684.4 | 1105.9
x2 = 0.2979 | 693.4 | 1112.1
x2 = 0.4965 | 720.9 | 1140
x2 = 0.6128 | 738.8 | 1160.2
x2 = 0.6817 | 750.1 | 1174
x2 = 0.7658 | 764.5 | 1192.1
x2 = 0.8937 | 788.1 | 1224.5

Source: the NIST ThermoML archive (doi:10.1007/s10765-009-0665-4)
